Assay results published in PubChem BioAssay (NCI).
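Following 48 hours of exposure in 96-well plates, responses at five concentrations were used to interpolate endpoints linearly. TGI: concentration producing complete growth inhibition.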

Legend:
Assay in all cases: NCI-60 cell line screen, 48 h
786-0 renal = system: 786-0 renal
A498 renal = system: A498 renal
A549 NSCLC = system: A549 NSCLC
ACHN renal = system: ACHN renal
CAKI-1 renal = system: CAKI-1 renal
CCRF-CEM leukemia = system: CCRF-CEM leukemia
COLO 205 colon = system: COLO 205 colon
DLD-1 colon = system: DLD-1 colon
DMS 114 small cell lung = system: DMS 114 small cell lung
DMS 273 small cell lung = system: DMS 273 small cell lung
EKVX NSCLC = system: EKVX NSCLC
HCT-116 colon = system: HCT-116 colon
HCT-15 colon = system: HCT-15 colon
HL-60(TB) leukemia = system: HL-60(TB) leukemia
HOP-18 NSCLC = system: HOP-18 NSCLC
HOP-62 NSCLC = system: HOP-62 NSCLC
HOP-92 NSCLC = system: HOP-92 NSCLC
HT29 colon = system: HT29 colon
IGROV1 ovarian = system: IGROV1 ovarian
K-562 leukemia = system: K-562 leukemia
KM12 colon = system: KM12 colon
KM20L2 colon = system: KM20L2 colon
LOX IMVI melanoma = system: LOX IMVI melanoma
LXFL 529 NSCLC = system: LXFL 529 NSCLC
M14 melanoma = system: M14 melanoma
M19-MEL melanoma = system: M19-MEL melanoma
MALME-3M melanoma = system: MALME-3M melanoma
MOLT-4 leukemia = system: MOLT-4 leukemia
NCI-H226 lung = system: NCI-H226 lung
NCI-H23 lung = system: NCI-H23 lung
NCI-H460 lung = system: NCI-H460 lung
NCI-H522 lung = system: NCI-H522 lung
OVCAR-3 ovarian = system: OVCAR-3 ovarian
OVCAR-4 ovarian = system: OVCAR-4 ovarian
OVCAR-5 ovarian = system: OVCAR-5 ovarian
OVCAR-8 ovarian = system: OVCAR-8 ovarian
RPMI-8226 leukemia = system: RPMI-8226 leukemia
RXF 393 renal = system: RXF 393 renal
RXF-631 renal = system: RXF-631 renal
SF-268 CNS = system: SF-268 CNS
SF-295 CNS = system: SF-295 CNS
SF-539 CNS = system: SF-539 CNS
SK-MEL-2 melanoma = system: SK-MEL-2 melanoma
SK-MEL-28 melanoma = system: SK-MEL-28 melanoma
SK-MEL-5 melanoma = system: SK-MEL-5 melanoma
SK-OV-3 ovarian = system: SK-OV-3 ovarian
SN12C renal = system: SN12C renal
SNB-19 CNS = system: SNB-19 CNS
SNB-75 CNS = system: SNB-75 CNS
SNB-78 CNS = system: SNB-78 CNS
SW-620 colon = system: SW-620 colon
TK-10 renal = system: TK-10 renal
U251 CNS = system: U251 CNS
UACC-257 melanoma = system: UACC-257 melanoma
UACC-62 melanoma = system: UACC-62 melanoma
UO-31 renal = system: UO-31 renal
XF 498 CNS = system: XF 498 CNS
BT-549 breast = system: BT-549 breast
DU-145 prostate = system: DU-145 prostate
HS 578T breast = system: HS 578T breast
MCF7 breast = system: MCF7 breast
MDA-MB-231 breast = system: MDA-MB-231 breast
MDA-N = system: MDA-N
NCI/ADR-RES ovarian = system: NCI/ADR-RES ovarian
PC-3 prostate = system: PC-3 prostate
SR leukemia = system: SR leukemia
T-47D breast = system: T-47D breast

O=c1[nH]cc(C(F)(C(F)(F)F)C(F)(F)F)c(=O)[nH]1
TGI (786-0 renal): > 100 µM | TGI (A498 renal): > 100 µM | TGI (A549 NSCLC): > 100 µM | TGI (ACHN renal): > 100 µM | TGI (CAKI-1 renal): > 100 µM | TGI (CCRF-CEM leukemia): > 100 µM | TGI (COLO 205 colon): > 100 µM | TGI (DLD-1 colon): > 100 µM | TGI (DMS 114 small cell lung): > 100 µM | TGI (DMS 273 small cell lung): > 100 µM | TGI (EKVX NSCLC): > 100 µM | TGI (HCT-116 colon): > 100 µM | TGI (HCT-15 colon): > 100 µM | TGI (HL-60(TB) leukemia): > 100 µM | TGI (HOP-18 NSCLC): > 100 µM | TGI (HOP-62 NSCLC): > 100 µM | TGI (HOP-92 NSCLC): > 100 µM | TGI (HT29 colon): > 100 µM | TGI (IGROV1 ovarian): > 100 µM | TGI (K-562 leukemia): > 100 µM | TGI (KM12 colon): > 100 µM | TGI (KM20L2 colon): > 100 µM | TGI (LOX IMVI melanoma): > 100 µM | TGI (LXFL 529 NSCLC): > 100 µM | TGI (M14 melanoma): > 100 µM | TGI (M19-MEL melanoma): > 100 µM | TGI (MALME-3M melanoma): > 100 µM | TGI (MOLT-4 leukemia): > 100 µM | TGI (NCI-H226 lung): > 100 µM | TGI (NCI-H23 lung): > 100 µM | TGI (NCI-H460 lung): > 100 µM | TGI (NCI-H522 lung): > 100 µM | TGI (OVCAR-3 ovarian): > 100 µM | TGI (OVCAR-4 ovarian): > 100 µM | TGI (OVCAR-5 ovarian): > 100 µM | TGI (OVCAR-8 ovarian): > 100 µM | TGI (RPMI-8226 leukemia): > 100 µM | TGI (RXF 393 renal): > 100 µM | TGI (RXF-631 renal): > 100 µM | TGI (SF-268 CNS): > 100 µM | TGI (SF-295 CNS): > 100 µM | TGI (SF-539 CNS): > 100 µM | TGI (SK-MEL-2 melanoma): > 100 µM | TGI (SK-MEL-28 melanoma): > 100 µM | TGI (SK-MEL-5 melanoma): > 100 µM | TGI (SK-OV-3 ovarian): > 100 µM | TGI (SN12C renal): > 100 µM | TGI (SNB-19 CNS): > 100 µM | TGI (SNB-75 CNS): > 100 µM | TGI (SNB-78 CNS): > 100 µM | TGI (SW-620 colon): > 100 µM | TGI (TK-10 renal): > 100 µM | TGI (U251 CNS): > 100 µM | TGI (UACC-257 melanoma): > 100 µM | TGI (UACC-62 melanoma): > 100 µM | TGI (UO-31 renal): > 100 µM | TGI (XF 498 CNS): > 100 µM

[Cl-].[Fe+2].c1ccc(-c2ccnc3c2ccc2c(-c4ccccc4)ccnc23)cc1.c1ccc(-c2ccnc3c2ccc2c(-c4ccccc4)ccnc23)cc1.c1ccc(-c2ccnc3c2ccc2c(-c4ccccc4)ccnc23)cc1
TGI (A498 renal): 0.39 µM | TGI (K-562 leukemia): 0.139 µM | TGI (RXF-631 renal): > 100 µM | TGI (SNB-78 CNS): > 100 µM

COC(=O)C1c2cc3c(c(O)c2C(O)CC1(C)O)C(=O)c1c(O)cc2c(c1C3=O)OC1OC2(C)C(O)C(N(C)C)C1O (configuration not stated)
TGI (BT-549 breast): 17.7 µM | TGI (CAKI-1 renal): 14.2 µM | TGI (CCRF-CEM leukemia): > 100 µM | TGI (COLO 205 colon): > 32.4 µM | TGI (DLD-1 colon): > 100 µM | TGI (DMS 114 small cell lung): > 100 µM | TGI (DMS 273 small cell lung): > 100 µM | TGI (DU-145 prostate): 3.44 µM | TGI (HL-60(TB) leukemia): > 24.9 µM | TGI (HOP-18 NSCLC): > 100 µM | TGI (HOP-62 NSCLC): > 100 µM | TGI (HOP-92 NSCLC): > 76.6 µM | TGI (HS 578T breast): 7.21 µM | TGI (IGROV1 ovarian): > 39.7 µM | TGI (K-562 leukemia): > 100 µM | TGI (KM12 colon): > 19.9 µM | TGI (KM20L2 colon): > 100 µM | TGI (LXFL 529 NSCLC): > 100 µM | TGI (M19-MEL melanoma): > 100 µM | TGI (MCF7 breast): 2.63 µM | TGI (MDA-MB-231 breast): 2.64 µM | TGI (MDA-N): 2.91 µM | TGI (MOLT-4 leukemia): > 100 µM | TGI (NCI-H226 lung): > 31.9 µM | TGI (NCI-H460 lung): > 100 µM | TGI (NCI/ADR-RES ovarian): 3.05 µM | TGI (OVCAR-3 ovarian): > 100 µM | TGI (OVCAR-4 ovarian): > 100 µM | TGI (OVCAR-8 ovarian): > 100 µM | TGI (PC-3 prostate): 2.43 µM | TGI (RPMI-8226 leukemia): > 100 µM | TGI (RXF 393 renal): > 100 µM | TGI (SF-295 CNS): > 100 µM | TGI (SK-MEL-2 melanoma): > 100 µM | TGI (SK-OV-3 ovarian): > 27.8 µM | TGI (SNB-19 CNS): > 100 µM | TGI (SNB-75 CNS): > 20.9 µM | TGI (SNB-78 CNS): > 100 µM | TGI (SR leukemia): > 100 µM | TGI (T-47D breast): 4.6 µM | TGI (XF 498 CNS): > 100 µM
